From PMC6316600, “Analgesic Activity of Acid-Sensing Ion Channel 3 (ASIС3) Inhibitors: Sea Anemones Peptides Ugr9-1 and APETx2 versus Low Molecular Weight Compounds” (Marine Drugs, 2018)
Bridge positions count the residues as written; N and C are the ends. Peptide text beside a SMILES is read from it.

Tests used:
human ASIC3 = target: T1, human ASIC3 (Homo sapiens, UniProt Q9UHC3); assay: Inhibition of sustained hASIC3 current, two-electrode voltage clamp, Xenopus laevis oocytes; assay type: cell-based; conditions: for Hill coefficient, sustained currents / IC50: hASIC3 in X. laevis oocytes, mean ± SEM (n = 4–6); for IC50: compound applied with 3.5 s pH stimulus, holding -50 mV, logistic fit, read-out: IC50, sustained currents
T1 construct: host or cells: Xenopus laevis oocytes (cRNA injection)
T1 sequence (Q9UHC3 1-531): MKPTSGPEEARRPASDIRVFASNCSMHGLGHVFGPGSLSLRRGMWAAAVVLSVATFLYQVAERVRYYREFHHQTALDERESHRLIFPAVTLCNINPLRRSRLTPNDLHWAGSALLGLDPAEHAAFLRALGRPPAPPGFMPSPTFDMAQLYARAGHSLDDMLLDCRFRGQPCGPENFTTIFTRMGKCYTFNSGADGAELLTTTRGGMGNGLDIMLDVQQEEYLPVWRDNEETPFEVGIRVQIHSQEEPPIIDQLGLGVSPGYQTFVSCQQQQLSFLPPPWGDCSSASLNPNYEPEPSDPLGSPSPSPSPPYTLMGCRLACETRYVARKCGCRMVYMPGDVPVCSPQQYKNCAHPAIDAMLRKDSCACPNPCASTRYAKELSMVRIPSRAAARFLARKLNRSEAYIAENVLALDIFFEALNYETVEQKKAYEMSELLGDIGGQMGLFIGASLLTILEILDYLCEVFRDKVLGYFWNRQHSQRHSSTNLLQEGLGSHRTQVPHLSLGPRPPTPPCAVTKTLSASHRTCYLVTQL
Text: Whole-cell currents were induced by pH drops and recorded at the holding potential −50 mV. (A) Effect of ligands on the transient component of current at conditioning pH 7.8. The control trace is shown first; (B) Effect of ligands on the sustained component at conditioning pH 7.3. The black line is the control trace, and the red line is the trace of activation in the presence of a ligand. Dose-response curves for transient (C) and sustained (D) currents’ inhibitions are shown. Data are shown as mean ± SEM (n = 4–6) and fitted with the logistic equation (solid lines).
The analysis of a sustained component of the current was carried out in a bath solution (pH 7.3) where the transient component of the current was completely desensitized by protons. The pH activation stimulus (3.5 s) was applied in the presence of the testing compound (Figure 1B).
X. laevis oocytes were removed surgically and defolliculated by collagenase (Sigma-Aldrich, Moscow, Russia). Oocytes were injected with 2.5 to 10 ng of human ASIC3 cRNA (AF057711.1). […] To induce transient and/or sustained currents, two different protocols with different conditioning pH were used. Microelectrodes were filled with a 3 M KCl solution. The working buffer solution was ND-96 titrated by NaOH to pH 7.8 or 7.3. The solution for the pH shift was constructed based on the ND-96 solution, in which 5 mM HEPES was replaced with 10 mM acetic acid (pH 4.0) or 10 mM MES (pH 5.5) in a supplementary 0.1% BSA solution. The duration of the activation pulses was 3.5 s.
The analysis of the electrophysiological data was performed using the OriginPro 8.6 programme.

mice = assay: CFA-induced paw oedema; assay type: in vivo, CD-1 mice; conditions: n = 7–8; for Reduction of inflammation (paw oedema): within 24 h; for Anti-inflammatory effect within 4 h: intramuscular, within 4 h after administration
Protocol: To reveal the anti-inflammatory effects of ASIC3 antagonists, paw oedema changes were also evaluated (Figure 5). […] APETx2 in a dose of 1 mg/kg reduced paw oedema by 16%, 24%, and 44% compared to the control group at 2, 4, and 24 h after administration, respectively. APETx2 at 0.2 mg/kg reduced inflammation by approximately 20% only 24 h after administration.
Figure 5 Anti-inflammatory effect of ligands. […] Results are presented as mean ± SEM (n = 7–8). * p < 0.05, ** p < 0.01, *** p < 0.001 versus saline group (ANOVA followed by a Tukey’s test).
Adult male CD-1 mice (Animal Breeding Facility Branch of Shemyakin-Ovchinnikov Institute of Bioorganic Chemistry, Russian Academy of Sciences, Pushchino, Russia) weighing 20–25 g were used. Animals that originally passed clinical examination that confirmed no deviations in health were divided into groups (at least eight male mice per group) using the principle of randomization. The average body weight of animals in each group was not statistically different between groups. Animals were housed at room temperature (23 ± 2 °C) and subjected to a 12-h light-dark cycle with food and water available ad libitum. All experiments were performed after receiving approval from the Animal Care and Use Committee of the Branch of the Institute of Bioorganic Chemistry, Russian Academy of Sciences (IBCh RAS) (Pushchino, Russia Federation). The samples were administered intramuscularly 2 h before testing (4 h in the open field test). The initial dose of 1 mg/kg was investigated for all samples, which was further reduced 5, 50, and 500 times for peptides.
CFA suspended in an oil/saline (1:1) emulsion was injected into the dorsal surfaces of the left hind paws of mice (20 µL/paw) 24 h before the samples’ intramuscular injection. The control mice received 20 µL of saline (intraplantar). The paw withdrawal latencies to thermal stimulation (53 °C) were measured 2 h after the sample injection. The paw diameter was evaluated before the CFA injection, before the samples and saline administration, and 2, 4, and 24 h after the administration using a digital calliper.
The data significance in animal tests was determined by an analysis of variance followed by a Tukey’s test. Data are presented as the mean ± SEM.

SMILES | Rank of potency, sustained component inhibition (human ASIC3) | Inhibition of sustained current (in words) (human ASIC3; conditioning pH 7.3) | Hill coefficient, sustained currents (human ASIC3; conditioning pH 7.3) | inhibition at 50 µM (human ASIC3; pH 7.3, read-out: Inhibition of sustained current amplitude at saturation concentration) | Reduction of inflammation (paw oedema) (mice; 0.02 mg/kg intramuscular) | Anti-inflammatory effect within 4 h (mice) | inhibition at 3000 µM (human ASIC3; about 3 mM, conditioning pH 7.3, read-out: Inhibition of sustained current amplitude at saturation concentration) | IC50 (human ASIC3; conditioning pH 7.3) | Inhibition of sustained current amplitude at saturation concentration (human ASIC3; about 3 mM, conditioning pH 7.3) | Inhibition of sustained current (in words) (human ASIC3; conditioning pH 7.3, listed as Sevanol) | Reduction of inflammation (paw oedema) (mice; 2.5 mg/kg intramuscular)
CC[C@H](C)[C@H](N)C(=O)N[C@@H](CO)C(=O)N[C@H](C(=O)N[C@@H](CC(=O)O)C(=O)N1CCC[C@H]1C(=O)N1CCC[C@H]1C(=O)N[C@H]1CSSC[C@@H](C(=O)NCC(=O)N[C@@H](C)C(=O)N[C@H](C(=O)O)C(C)C)NC(=O)CNC(=O)[C@H](Cc2ccc(O)cc2)NC(=O)[C@H](C)NC(=O)[C@H](CC(=O)O)NC(=O)[C@H](Cc2ccc(O)cc2)NC(=O)[C@H](C(C)C)NC(=O)[C@@H]2CSSC[C@H](NC(=O)[C@H](Cc3ccccc3)NC(=O)[C@H](CCCNC(=N)N)NC1=O)C(=O)N[C@@H](Cc1ccc(O)cc1)C(=O)N[C@@H](Cc1c[nH]cn1)C(=O)N[C@@H](CCCNC(=N)N)C(=O)N[C@@H](CC(=O)O)C(=O)NCC(=O)N[C@@H](CO)C(=O)NCC(=O)N[C@@H](CC(N)=O)C(=O)N2)[C@@H](C)CC [Ugr9-1] (H-ISIDPPCRFCYHRDGSGNCVYDAYGCGAV-OH; disulfide 7-26, 10-19; N-terminus and C-terminus assumed) | Ugr9-1 > sevanol > diclofenac | decreased transient and sustained components of the current | 1.74 ± 0.51 | ~50% | 31% | did not produce significant anti-inflammatory effects within 4 h |  |  |  |  | 
O=C(O)Cc1ccccc1Nc1c(Cl)cccc1Cl [diclofenac, reference compound] | Ugr9-1 > sevanol > diclofenac | significantly weaker in their inhibitory potency when compared to peptide toxin Ugr9-1 |  |  |  | did not produce significant anti-inflammatory effects within 4 h | ~50% | 856 ± 106 µM |  |  | 
O=C(O)C[C@H](C(=O)O)[C@@H](OC(=O)C1=Cc2cc(O)c(O)cc2[C@@H](c2ccc(O)c(O)c2)[C@@H]1C(=O)O[C@@H](C(=O)O)[C@H](CC(=O)O)C(=O)O)C(=O)O [sevanol] | Ugr9-1 > sevanol > diclofenac | decreased transient and sustained components of the current | 2.4 ± 0.4 |  |  | did not produce significant anti-inflammatory effects within 4 h |  | 259 ± 39 µM | approximately 50% | significantly weaker in their inhibitory potency when compared to peptide toxin Ugr9-1 | 22%
